Measured values taken from PMC3383642 (Nature, 2012).
Values joined by “and” are separate entries in the source; they are usually repeats but may differ in a detail not shown here. Identical values can stand only once. Like-named read-outs stand apart in the source and are kept apart here.

Key:
[1] = tested on: platelet aggregation in whole human blood; assay: Collagen-induced platelet aggregation in whole human blood; assay type: cell-based
[2] = target: HRH1 (histamine receptor H1) (Homo sapiens, UniProt P35367); assay: biochemical; assay type: binding
HRH1 (histamine receptor H1), sequence (P35367 whole entry): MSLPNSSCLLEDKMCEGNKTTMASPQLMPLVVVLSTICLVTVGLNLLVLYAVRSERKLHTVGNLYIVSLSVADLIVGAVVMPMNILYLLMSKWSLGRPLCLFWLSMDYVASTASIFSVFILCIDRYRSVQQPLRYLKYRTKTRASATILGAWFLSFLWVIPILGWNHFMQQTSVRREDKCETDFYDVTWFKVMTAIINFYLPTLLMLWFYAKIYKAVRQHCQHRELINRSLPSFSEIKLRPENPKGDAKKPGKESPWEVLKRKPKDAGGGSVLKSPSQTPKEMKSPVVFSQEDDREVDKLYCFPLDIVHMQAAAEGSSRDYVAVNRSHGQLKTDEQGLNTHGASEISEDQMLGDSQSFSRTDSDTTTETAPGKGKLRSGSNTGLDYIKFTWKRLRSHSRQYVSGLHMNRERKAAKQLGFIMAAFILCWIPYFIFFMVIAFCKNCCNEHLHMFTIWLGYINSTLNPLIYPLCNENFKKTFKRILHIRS

[3] = human plasma, ref Thompson Reuters Integrity, cited from earlier work; for AUC [μM*h] (median): median of reported values
[4] = target: OPRM1 (opioid receptor, mu 1) (Homo sapiens, UniProt P35372); assay: OPRM1 functional agonist assay; assay type: cell-based; conditions: Activity (μM) (median), target OPRM1; agonist per Figure S1E
OPRM1 (opioid receptor, mu 1), sequence (P35372 whole entry): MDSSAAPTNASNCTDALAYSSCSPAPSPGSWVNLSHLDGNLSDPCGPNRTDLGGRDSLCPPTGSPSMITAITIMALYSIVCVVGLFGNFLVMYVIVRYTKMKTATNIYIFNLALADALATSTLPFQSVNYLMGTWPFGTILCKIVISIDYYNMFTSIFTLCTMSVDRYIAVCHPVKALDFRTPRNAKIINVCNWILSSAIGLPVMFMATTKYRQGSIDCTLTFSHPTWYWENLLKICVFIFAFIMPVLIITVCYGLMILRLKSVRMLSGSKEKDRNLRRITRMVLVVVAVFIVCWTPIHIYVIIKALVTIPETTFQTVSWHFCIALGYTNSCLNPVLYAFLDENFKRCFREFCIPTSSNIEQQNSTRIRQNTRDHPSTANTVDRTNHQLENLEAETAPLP

PTGS1 (ovine COX-1) = target: T1, PTGS1 (ovine COX-1) (Ovis aries, UniProt P05979); assay: biochemical
T1 sequence (P05979 25-600): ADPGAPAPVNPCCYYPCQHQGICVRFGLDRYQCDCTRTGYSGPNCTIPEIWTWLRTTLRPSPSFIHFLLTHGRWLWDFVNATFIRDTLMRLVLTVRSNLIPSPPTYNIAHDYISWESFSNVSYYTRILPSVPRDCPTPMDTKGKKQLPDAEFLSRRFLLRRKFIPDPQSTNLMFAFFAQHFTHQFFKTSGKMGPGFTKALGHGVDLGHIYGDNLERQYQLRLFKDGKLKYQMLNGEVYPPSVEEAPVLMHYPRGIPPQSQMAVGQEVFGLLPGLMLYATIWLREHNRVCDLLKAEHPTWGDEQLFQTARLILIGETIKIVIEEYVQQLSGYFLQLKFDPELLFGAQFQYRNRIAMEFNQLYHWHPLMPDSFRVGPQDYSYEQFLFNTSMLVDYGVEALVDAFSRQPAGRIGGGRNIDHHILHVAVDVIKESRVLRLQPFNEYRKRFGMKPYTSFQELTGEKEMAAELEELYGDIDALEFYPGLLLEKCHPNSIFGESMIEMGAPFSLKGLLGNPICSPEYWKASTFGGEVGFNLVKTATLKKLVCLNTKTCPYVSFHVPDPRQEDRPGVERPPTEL

[5] = target: T2, PGR (progesterone receptor) (Homo sapiens, UniProt P06401); assay: biochemical
T2 sequence (P06401 679-913 limits assumed): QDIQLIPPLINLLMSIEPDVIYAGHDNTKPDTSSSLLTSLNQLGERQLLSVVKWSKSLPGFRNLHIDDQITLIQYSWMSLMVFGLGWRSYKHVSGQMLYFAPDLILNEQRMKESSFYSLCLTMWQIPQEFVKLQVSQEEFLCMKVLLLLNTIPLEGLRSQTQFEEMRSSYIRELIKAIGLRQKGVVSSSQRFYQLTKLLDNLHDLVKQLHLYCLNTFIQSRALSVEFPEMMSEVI

[6] = Homo sapiens, Platelet, read-out: inhibition of platelet aggregation

COc1ccc2c(c1)c(CC(=O)O)c(C)n2C(=O)c1ccc(Cl)cc1 [indomethacin]
inhibition at 50 µM [1, 6]: 50%

CCN(CC)CCCN(c1ccccc1)C1Cc2ccccc2C1 [Aprindine]
IC50 ([2]; IC50 [μM]): 0.78 µM

CNC(=C[N+](=O)[O-])NCCSCc1ccc(CN(C)C)o1 [Ranitidine]
AUC [μM*h] (median) [3]: 9.67 µM·h | AUC ([3]; range of reported values): 5.66 to 121.90 µM·h | Cmax ([3]; range of reported values): 1140 to 9110 nM

CC(=O)Oc1ccccc1C(=O)O [Acetylsalicylic acid]
inhibition at 250 µM [1, 6]: 42 to 48%

CC(NCCc1ccc(O)cc1)C(O)c1ccc(O)cc1 (centres unmarked) [Ritodrine]
EC50 [4]: 9.18 µM | AUC [μM*h] (median) [3]: 0.11 µM·h | AUC ([3]; range of reported values): 0.03 to 0.32 µM·h | Cmax ([3]; range of reported values): 10 to 150 nM

CC(Cc1ccccc1)NCCC(c1ccccc1)c1ccccc1 (centres unmarked) [Prenylamine]
IC50 ([2]; Activity (μM) (median)): 7.87 µM | IC50 ([2]; IC50 [μM]): 7.9 µM | AUC ([3]; range of reported values): 0.12 µM·h | Cmax ([3]; range of reported values): 1200 nM

COc1ccc(C(Cl)=C(c2ccc(OC)cc2)c2ccc(OC)cc2)cc1 [Chlorotrianisene]
IC50 (PTGS1 (ovine COX-1)): 0.16 µM | potency of inhibition of platelet aggregation in whole blood ([1]; 0.5, 5 and 50 μM, collagen 1 μg/mL, compared with indomethacin): almost indistinguishable from that of indomethacin

C[C@H]1C[C@@H]2[C@H]([C@@H](O)C[C@@]3(C)[C@H]2CC[C@]3(O)C(=O)CO)[C@@]2(C)C=CC(=O)C=C12 [Methylprednisolone]
EC50 [5]: 1.3 µM | AUC [μM*h] (median) [3]: 1.28 µM·h | AUC ([3]; range of reported values): 0.09 to 10.76 µM·h | Cmax ([3]; range of reported values): 60 to 2110 nM

CN1CCN(C2=Nc3ccccc3Oc3ccc(Cl)cc32)CC1 [Loxapine]
AUC [μM*h] (median) [3]: 0.21 µM·h | AUC ([3]; range of reported values): 0.03 to 0.43 µM·h | Cmax ([3]; range of reported values): 20 to 410 nM

CN(C)CCC=C1c2ccccc2C=Cc2ccccc21 [Cyclobenzaprine]
IC50 ([2]; Activity (μM) (median)): 0.02 µM | IC50 ([2]; binding to histamine H1 receptor (HRH1), IC50): 0.021 µM and 0.02 µM | AUC [μM*h] (median) [3]: 0.69 µM·h | AUC ([3]; range of reported values): 0.16 to 4.10 µM·h | Cmax ([3]; range of reported values): 10 to 130 nM | Cmax ([3]; read-out: median Cmax in plasma): 61 nM
